How the values were obtained:
Format in all cases: cell-based
human TLR7 = target: T1, human TLR7 (Homo sapiens, UniProt Q9NYK1); assay: TLR7 inhibition reporter assay (HEK-Blue cells, SEAP reporter, gardiquimod stimulation); settings: HEK-Blue cells overexpressing human TLR7, SEAP reporter, gardiquimod 7.5 μM
T1 construct: host or cells: HEK-Blue cells (HEK293-derived reporter line)
T1 sequence (Q9NYK1 27-1049): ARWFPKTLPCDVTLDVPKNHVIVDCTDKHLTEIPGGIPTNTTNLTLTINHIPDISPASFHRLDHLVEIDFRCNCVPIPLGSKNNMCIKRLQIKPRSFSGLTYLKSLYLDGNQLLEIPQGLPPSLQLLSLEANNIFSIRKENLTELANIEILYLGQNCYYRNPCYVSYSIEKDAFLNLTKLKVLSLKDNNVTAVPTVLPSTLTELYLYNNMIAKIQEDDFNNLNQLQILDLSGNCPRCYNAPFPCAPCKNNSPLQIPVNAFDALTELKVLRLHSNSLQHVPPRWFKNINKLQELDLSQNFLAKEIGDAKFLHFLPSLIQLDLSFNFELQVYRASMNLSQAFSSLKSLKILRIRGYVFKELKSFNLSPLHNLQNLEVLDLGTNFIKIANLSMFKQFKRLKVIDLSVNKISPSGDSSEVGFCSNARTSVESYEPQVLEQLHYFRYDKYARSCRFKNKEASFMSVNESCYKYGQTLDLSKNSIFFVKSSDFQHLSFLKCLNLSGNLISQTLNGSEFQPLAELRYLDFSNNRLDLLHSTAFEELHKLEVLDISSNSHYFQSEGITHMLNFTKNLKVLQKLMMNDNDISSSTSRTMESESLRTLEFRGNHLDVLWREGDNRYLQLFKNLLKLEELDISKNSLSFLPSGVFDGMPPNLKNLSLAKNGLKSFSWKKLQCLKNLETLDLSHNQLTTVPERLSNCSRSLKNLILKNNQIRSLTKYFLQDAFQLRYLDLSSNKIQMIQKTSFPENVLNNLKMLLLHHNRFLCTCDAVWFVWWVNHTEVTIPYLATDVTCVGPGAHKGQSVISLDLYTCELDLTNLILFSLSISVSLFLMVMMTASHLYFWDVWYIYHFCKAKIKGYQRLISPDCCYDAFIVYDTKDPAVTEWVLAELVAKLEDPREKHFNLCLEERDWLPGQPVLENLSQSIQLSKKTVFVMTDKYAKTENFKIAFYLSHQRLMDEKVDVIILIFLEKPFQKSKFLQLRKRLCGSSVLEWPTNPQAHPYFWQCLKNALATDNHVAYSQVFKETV
How it was run: (§1)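 Cells seeded per well (15000 TLR7, 20,000 TLR8, 25,000 TLR9); compound added over 0.05 nM–50 μM for 30 min at room temperature; agonist added (TLR7 gardiquimod 7.5 μM, TLR8 R848 15.9 μM, TLR9 ODN2006 5 nM); 22 h at 37 °C; SEAP measured; percent inhibition calculated.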

human TLR8 = target: T2, human TLR8 (Homo sapiens, UniProt Q9NR97); assay: TLR8 inhibition reporter assay (HEK-Blue cells, SEAP reporter, R848 stimulation); settings: HEK-Blue cells overexpressing human TLR8, SEAP reporter, R848 15.9 μM
T2 construct: host or cells: HEK-Blue cells (HEK293-derived reporter line)
T2 sequence (Q9NR97 27-1041): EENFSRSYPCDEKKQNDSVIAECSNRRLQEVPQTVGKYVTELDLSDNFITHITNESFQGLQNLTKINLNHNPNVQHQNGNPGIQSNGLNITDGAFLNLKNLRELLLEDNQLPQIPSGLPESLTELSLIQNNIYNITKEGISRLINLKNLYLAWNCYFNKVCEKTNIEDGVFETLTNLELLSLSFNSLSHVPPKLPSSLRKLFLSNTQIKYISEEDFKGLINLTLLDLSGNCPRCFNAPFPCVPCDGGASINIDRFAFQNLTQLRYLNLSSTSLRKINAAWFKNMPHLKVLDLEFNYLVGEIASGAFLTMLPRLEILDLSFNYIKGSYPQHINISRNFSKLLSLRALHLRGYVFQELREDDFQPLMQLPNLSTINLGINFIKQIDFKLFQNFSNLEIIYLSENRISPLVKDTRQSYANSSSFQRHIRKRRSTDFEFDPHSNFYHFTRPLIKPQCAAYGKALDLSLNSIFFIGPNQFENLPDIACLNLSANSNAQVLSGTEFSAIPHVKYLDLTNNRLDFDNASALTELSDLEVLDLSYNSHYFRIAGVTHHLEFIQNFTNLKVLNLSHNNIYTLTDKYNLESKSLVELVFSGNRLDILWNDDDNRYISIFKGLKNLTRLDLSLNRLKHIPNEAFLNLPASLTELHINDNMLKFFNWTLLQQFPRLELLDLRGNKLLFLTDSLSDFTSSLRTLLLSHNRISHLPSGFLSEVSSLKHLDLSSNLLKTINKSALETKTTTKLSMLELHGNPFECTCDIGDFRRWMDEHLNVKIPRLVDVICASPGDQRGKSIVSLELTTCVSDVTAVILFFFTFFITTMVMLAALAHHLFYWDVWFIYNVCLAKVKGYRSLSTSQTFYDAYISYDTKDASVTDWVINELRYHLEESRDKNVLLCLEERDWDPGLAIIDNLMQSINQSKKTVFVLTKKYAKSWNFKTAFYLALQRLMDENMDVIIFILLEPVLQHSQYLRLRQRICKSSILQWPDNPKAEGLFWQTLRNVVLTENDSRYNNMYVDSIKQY
How it was run: as §1

human TLR9 = target: T3, human TLR9 (Homo sapiens, UniProt Q9NR96); assay: TLR9 inhibition reporter assay (HEK-Blue cells, SEAP reporter, ODN2006 stimulation); settings: HEK-Blue cells overexpressing human TLR9, SEAP reporter, ODN2006 5 nM
T3 construct: host or cells: HEK-Blue cells (HEK293-derived reporter line)
T3 sequence (Q9NR96 26-1032): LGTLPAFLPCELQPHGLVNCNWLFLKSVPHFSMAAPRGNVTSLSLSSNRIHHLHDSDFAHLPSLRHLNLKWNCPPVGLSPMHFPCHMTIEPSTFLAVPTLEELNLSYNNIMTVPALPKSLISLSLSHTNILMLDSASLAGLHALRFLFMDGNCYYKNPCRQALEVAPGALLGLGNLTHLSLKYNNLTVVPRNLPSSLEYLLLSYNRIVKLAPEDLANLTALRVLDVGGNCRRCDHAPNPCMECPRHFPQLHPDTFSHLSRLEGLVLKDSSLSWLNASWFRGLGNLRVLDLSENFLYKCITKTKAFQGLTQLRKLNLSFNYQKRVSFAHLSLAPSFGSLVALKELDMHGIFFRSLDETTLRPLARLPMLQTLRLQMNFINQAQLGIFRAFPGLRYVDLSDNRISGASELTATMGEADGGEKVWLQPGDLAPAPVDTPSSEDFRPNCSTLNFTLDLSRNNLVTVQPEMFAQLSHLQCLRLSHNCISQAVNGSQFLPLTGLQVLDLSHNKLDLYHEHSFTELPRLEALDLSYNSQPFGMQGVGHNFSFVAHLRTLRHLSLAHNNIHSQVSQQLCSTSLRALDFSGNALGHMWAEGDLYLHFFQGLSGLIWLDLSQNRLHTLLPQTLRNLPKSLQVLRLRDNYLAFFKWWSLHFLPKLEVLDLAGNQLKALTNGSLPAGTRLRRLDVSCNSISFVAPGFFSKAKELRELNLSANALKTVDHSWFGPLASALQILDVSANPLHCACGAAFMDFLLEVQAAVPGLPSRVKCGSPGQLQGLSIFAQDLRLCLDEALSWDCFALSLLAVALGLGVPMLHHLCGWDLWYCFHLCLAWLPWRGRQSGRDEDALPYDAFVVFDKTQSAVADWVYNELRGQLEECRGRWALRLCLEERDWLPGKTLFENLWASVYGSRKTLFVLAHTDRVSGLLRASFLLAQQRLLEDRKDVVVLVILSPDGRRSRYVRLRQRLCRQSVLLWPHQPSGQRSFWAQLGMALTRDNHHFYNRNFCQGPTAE
How it was run: as §1

CC(C)c1c(-c2ccnc3cnn(C)c23)[nH]c2ccc(C3CCNCC3)cc12 [Example 43, 7-(3-isopropyl-5-(piperidin-4-yl)-1H-indol-2-yl)-1-methyl-1H-pyrazolo[4,3-b]pyridine]
IC50 (human TLR7): 100 to 1000 nM | IC50 (human TLR8): < 100 nM | IC50 (human TLR9): 1000 to 50000 nM

Cc1cc(-c2[nH]c3ccc(C4CCN(CCCC(F)(F)F)CC4)cc3c2C(C)C)cn2nnnc12 [Example 963, 6-(3-isopropyl-5-(1-(4,4,4-trifluorobutyl)piperidin-4-yl)-1H-indol-2-yl)-8-methyltetrazolo[1,5-a]pyridine]
IC50 (human TLR7): < 100 nM | IC50 (human TLR8): < 100 nM | IC50 (human TLR9): 1000 to 50000 nM

Cc1cc(-c2[nH]c3ccc(C4CCN(C(=O)CCN5CCCC5)CC4)cc3c2C(C)C)cn2nnnc12 [Example 618, 1-(4-(3-isopropyl-2-(8-methyltetrazolo[1,5-a]pyridin-6-yl)-1H-indol-5-yl)piperidin-1-yl)-3-(pyrrolidin-1-yl)propan-1-one]
IC50 (human TLR7): < 100 nM | IC50 (human TLR8): < 100 nM | IC50 (human TLR9): 100 to 1000 nM

CC(C)c1c(-c2cc(Cl)c3ncccc3c2)[nH]c2ccc(C3CCN(C(=O)CN(C)C)CC3)cc12 [Example 512, 1-(4-(2-(8-chloroquinolin-6-yl)-3-isopropyl-1H-indol-5-yl)piperidin-1-yl)-2-(dimethylamino)ethan-1-one]
IC50 (human TLR7): < 100 nM | IC50 (human TLR8): < 100 nM | IC50 (human TLR9): 1000 to 50000 nM

Cc1cn2cc(-c3[nH]c4ccc(C5CCN(C(=O)CN(C)C)CC5)cc4c3C(C)C)cc(C)c2n1 [Example 509, 2-(dimethylamino)-1-(4-(2-(2,8-dimethylimidazo[1,2-a]pyridin-6-yl)-3-isopropyl-1H-indol-5-yl)piperidin-1-yl)ethan-1-one]
IC50 (human TLR7): < 100 nM | IC50 (human TLR8): < 100 nM | IC50 (human TLR9): 100 to 1000 nM

Cc1c(-c2[nH]c3ccc(C4CCN(CC(=O)N(C)C)CC4)cc3c2C(C)C)cn2ccnc2c1Cl [Example 415, 2-(4-(2-(8-chloro-7-methylimidazo[1,2-a]pyridin-6-yl)-3-isopropyl-1H-indol-5-yl)piperidin-1-yl)-N,N-dimethylacetamide]
IC50 (human TLR7): < 100 nM | IC50 (human TLR8): < 100 nM | IC50 (human TLR9): 1000 to 50000 nM

Cc1cc(-c2[nH]c3ccc(C4CCN(CC(=O)N(C)C)CC4)cc3c2C(C)C)nn2ccnc12 [Example 447, 2-(4-(3-isopropyl-2-(8-methylimidazo[1,2-b]pyridazin-6-yl)-1H-indol-5-yl)piperidin-1-yl)-N,N-dimethylacetamide]
IC50 (human TLR7): < 100 nM | IC50 (human TLR8): < 100 nM | IC50 (human TLR9): 1000 to 50000 nM

CC(C)c1c(-c2ccnc3[nH]ncc23)[nH]c2ccc(C3CCN(C4CCNCC4C)CC3)cc12 (stereo not drawn) [Example 834, 4-(3-isopropyl-5-(3′-methyl-[1,4′-bipiperidin]-4-yl)-1H-indol-2-yl)-1H-pyrazolo[3,4-b]pyridine]
IC50 (human TLR7): < 100 nM | IC50 (human TLR8): < 100 nM | IC50 (human TLR9): 100 to 1000 nM

Cc1c(-c2ncnc3[nH]cnc23)[nH]c2ccc(C3CCN(C4CCN(C(C)C)CC4)CC3)cc12 [Example 815, 6-(5-(1′-isopropyl-[1,4′-bipiperidin]-4-yl)-3-methyl-1H-indol-2-yl)-9H-purine]
IC50 (human TLR7): 1000 to 50000 nM | IC50 (human TLR8): < 100 nM | IC50 (human TLR9): < 100 nM

CC(C)c1c(-c2cn(C)c3ncccc23)[nH]c2ccc(C3CCN(Cc4ncn(C)n4)CC3)cc12 [Example 878, 3-(3-isopropyl-5-(1-((1-methyl-1H-1,2,4-triazol-3-yl)methyl)piperidin-4-yl)-1H-indol-2-yl)-1-methyl-1H-pyrrolo[2,3-b]pyridine]
IC50 (human TLR7): < 100 nM | IC50 (human TLR8): < 100 nM | IC50 (human TLR9): 1000 to 50000 nM

CCc1c(-c2ccnc3[nH]ncc23)[nH]c2ccc(C3CCN(Cc4cnc[nH]4)CC3)cc12 [Example 863, 4-(5-(1-((1H-imidazol-5-yl)methyl)piperidin-4-yl)-3-ethyl-1H-indol-2-yl)-1H-pyrazolo[3,4-b]pyridine]
IC50 (human TLR7): 100 to 1000 nM | IC50 (human TLR8): < 100 nM | IC50 (human TLR9): 100 to 1000 nM

Cc1ccnc2c1c(-c1[nH]c3ccc(C4CCN(C(=O)CN(C)C)CC4)cc3c1C(C)C)cn2C [Example 457, 1-(4-(2-(1,4-dimethyl-1H-pyrrolo[2,3-b]pyridin-3-yl)-3-isopropyl-1H-indol-5-yl)piperidin-1-yl)-2-(dimethylamino)ethan-1-one]
IC50 (human TLR7): < 100 nM | IC50 (human TLR8): < 100 nM | IC50 (human TLR9): 1000 to 50000 nM

Cc1cc(-c2[nH]c3ccc(C4CCNCC4)cc3c2C(C)C)cn2cc(C(=O)NC3CC3)nc12 [Example 262, N-cyclopropyl-6-(3-isopropyl-5-(piperidin-4-yl)-1H-indol-2-yl)-8-methylimidazo[1,2-a]pyridine-2-carboxamide]
IC50 (human TLR7): < 100 nM | IC50 (human TLR8): < 100 nM | IC50 (human TLR9): 100 to 1000 nM

Cc1cn2cc(-c3[nH]c4ccc(C5CCN(Cc6c[nH]cn6)CC5)cc4c3C(C)C)ccc2n1 [Example 936, 6-(5-(1-((1H-imidazol-4-yl)methyl)piperidin-4-yl)-3-isopropyl-1H-indol-2-yl)-2-methylimidazo[1,2-a]pyridine]
IC50 (human TLR7): < 100 nM | IC50 (human TLR8): 100 to 1000 nM | IC50 (human TLR9): < 100 nM

From patent US11739098B2 (BRISTOL-MYERS SQUIBB COMPANY, priority 2017, dated 2023)
